Test results taken from article PMC8538066, “Purification and Identification of Novel Xanthine Oxidase Inhibitory Peptides Derived from Round Scad (Decapterus maruadsi) Protein Hydrolysates” (Marine Drugs, 2021).
Marks after values point to notes of the source that are not given here. Blank lines part the entries; values can stand above or below the molecule they belong to.

How the values were obtained:
[1] = molecular target: T1, xanthine oxidase (XO) (Bos taurus, UniProt P80457); assay: XO inhibitory activity assay (rate of uric acid formation, absorbance 290 nm); assay type: biochemical; details: peptide 5 mM; XO 0.05 U/mL, pre-incubation 37 °C 30 min, xanthine 0.42 mM, 20 mM sodium carbonate buffer pH 7.5, 290 nm; each sample tested three times
T1 construct: purchased Sigma Chemical Co. (St. Louis, MO, USA)
Experimental: The XO inhibitory activity was measured by quantifying the rate of uric acid produced in the enzyme-catalyzed reaction. All samples were dissolved in 20 mM sodium carbonate buffer at pH 7.5. […] During the reaction, the dynamic changes of the absorbance of the sample were continuously recorded at 290 nm. Each sample was tested three times. The XO inhibitory activity was calculated using the following formula:Inhibition (%) = (V1 − V2)/V1 × 100%(1) where V1 is the initial enzymatic reaction rate of the blank group, V2 is the initial enzymatic reaction rate of sample group.

[2] = molecular target: T1, xanthine oxidase (XO); assay: Fluorescence quenching of XO (Stern-Volmer analysis); assay type: binding; details: for Kq (quenching rate constant) / Ksv (Stern-Volmer quenching constant): T 298 K; for Kq (quenching rate constant): Kq = Ksv/τ0, τ0 approximately 10^−8 s; for Ksv (Stern-Volmer quenching constant): XO 0.05 U/mL, peptide 0 to 20.0 × 10^−4 M, excitation 280 nm; for fluorescence quenching mechanism of XO: from Kq versus the collisional quenching threshold
Experimental: Fluorescence spectra were measured on an F-7000 Spectrofluorimeter (Hitachi Ltd., Ibaraki, Japan) with a 1.0 cm quartz cell and a thermostatic bath. Briefly, 2 mL XO (0.05 U/mL) was titrated by continuous addition of peptides solution (to final concentrations ranging from 0 to 20.0 × 10^−4 M). Then, the obtained mixture was properly mixed and equilibrated for 5 min. The slit widths for excitation and emission were set to 2.5 nm. The fluorescence emission spectra were then measured in the emission wavelength range from 300 to 500 nm, under 280 nm excitation wavelengths. The following Stern-Volmer equation was used to analyze the fluorescence quenching:F0/F = 1 + Ksv [C] = 1 + Kq τ0 [C](3) where F0 and F represent the steady-state fluorescence intensities in the absence and presence of quencher, respectively. Ksv is the Stern-Volmer quenching constant. [C] is the quencher concentration. Kq is the quenching rate constant of biomolecule. Kq = Ksv/τ0, τ0 is the average lifetime of biomolecule in the absence of quencher and its value is approximately 10^−8 s. Ksv used to be estimated by linear regression plot slope of F0/F versus.

[3] = molecular target: T1, xanthine oxidase (XO); assay: Reversibility and type of XO inhibition (v vs enzyme plots; Lineweaver-Burk plots); assay type: biochemical; details: for type of XO inhibition: Lineweaver-Burk, peptide 0 and 5 mM, XO 0.05 U/mL, xanthine 0-0.4 mM, Km increased, Vmax decreased; for reversibility of XO inhibition: inhibitor 0, 5, 10 and 20 mM, XO 0 to 0.1 U/mL, xanthine 0.4 mM, 37 °C 30 min, pH 7.5
Experimental: The plots of ν (ΔOD290nm/min) versus the XO (U/mL) at different concentrations of the inhibitors (peptides) were constructed to determine the reversibility of inhibitory behavior on XO [29]. All samples were dissolved in 20 mM sodium carbonate buffer (pH 7.5). Inhibitor solution (0, 5, 10 and 20 mM) and XO solution (from 0 to 0.1 U/mL) were mixed and incubated at 37 °C for 30 min, and the concentration of the substrate xanthine was kept constant at 0.4 mM. The absorbance at 290 nm was then determined. ν is the initial enzymatic reaction rate of the reaction, which was investigated using the same method for the XO inhibitory activity assay.
The type of the inhibition of XO activity by the inhibitors (peptides) was investigated using Lineweaver and Burk kinetic analysis. It was performed via evaluating the initial rate of reaction in the presence and absence of inhibitors at different xanthine concentration. Briefly, the peptide (0 and 5 mM) and XO (0.05 U/mL) were mixed and incubated in the buffer (20 mM sodium carbonate buffer, pH 7.5) for 30 min at 37 °C. Subsequently, different xanthine concentrations (0, 0.05, 0.1, 0.2 and 0.4 mM) were successively added into the solutions. Then, the dynamic changes of the absorbance at 290 nm were recorded, and ν was calculated using the same method above. Km and Vmax values, as corresponding kinetic parameters, were obtained from the Lineweaver and Burk double reciprocal plots.

[4] = molecular target: Xanthine oxidase (UniProt P80457)
[5] = molecular target: Xanthine oxidase (UniProt P80457); assay: other fluorescence titration; quenching of the intrinsic fluorescence of XO (2 mL, 0.05 U/mL) titrated with peptide to 0-20.0 x 10^-4 M; equilibrated 5 min; excitation 280 nm, emission 300-500 nm; 298 K; Stern-Volmer analysis

T1 sequence (P80457 whole entry): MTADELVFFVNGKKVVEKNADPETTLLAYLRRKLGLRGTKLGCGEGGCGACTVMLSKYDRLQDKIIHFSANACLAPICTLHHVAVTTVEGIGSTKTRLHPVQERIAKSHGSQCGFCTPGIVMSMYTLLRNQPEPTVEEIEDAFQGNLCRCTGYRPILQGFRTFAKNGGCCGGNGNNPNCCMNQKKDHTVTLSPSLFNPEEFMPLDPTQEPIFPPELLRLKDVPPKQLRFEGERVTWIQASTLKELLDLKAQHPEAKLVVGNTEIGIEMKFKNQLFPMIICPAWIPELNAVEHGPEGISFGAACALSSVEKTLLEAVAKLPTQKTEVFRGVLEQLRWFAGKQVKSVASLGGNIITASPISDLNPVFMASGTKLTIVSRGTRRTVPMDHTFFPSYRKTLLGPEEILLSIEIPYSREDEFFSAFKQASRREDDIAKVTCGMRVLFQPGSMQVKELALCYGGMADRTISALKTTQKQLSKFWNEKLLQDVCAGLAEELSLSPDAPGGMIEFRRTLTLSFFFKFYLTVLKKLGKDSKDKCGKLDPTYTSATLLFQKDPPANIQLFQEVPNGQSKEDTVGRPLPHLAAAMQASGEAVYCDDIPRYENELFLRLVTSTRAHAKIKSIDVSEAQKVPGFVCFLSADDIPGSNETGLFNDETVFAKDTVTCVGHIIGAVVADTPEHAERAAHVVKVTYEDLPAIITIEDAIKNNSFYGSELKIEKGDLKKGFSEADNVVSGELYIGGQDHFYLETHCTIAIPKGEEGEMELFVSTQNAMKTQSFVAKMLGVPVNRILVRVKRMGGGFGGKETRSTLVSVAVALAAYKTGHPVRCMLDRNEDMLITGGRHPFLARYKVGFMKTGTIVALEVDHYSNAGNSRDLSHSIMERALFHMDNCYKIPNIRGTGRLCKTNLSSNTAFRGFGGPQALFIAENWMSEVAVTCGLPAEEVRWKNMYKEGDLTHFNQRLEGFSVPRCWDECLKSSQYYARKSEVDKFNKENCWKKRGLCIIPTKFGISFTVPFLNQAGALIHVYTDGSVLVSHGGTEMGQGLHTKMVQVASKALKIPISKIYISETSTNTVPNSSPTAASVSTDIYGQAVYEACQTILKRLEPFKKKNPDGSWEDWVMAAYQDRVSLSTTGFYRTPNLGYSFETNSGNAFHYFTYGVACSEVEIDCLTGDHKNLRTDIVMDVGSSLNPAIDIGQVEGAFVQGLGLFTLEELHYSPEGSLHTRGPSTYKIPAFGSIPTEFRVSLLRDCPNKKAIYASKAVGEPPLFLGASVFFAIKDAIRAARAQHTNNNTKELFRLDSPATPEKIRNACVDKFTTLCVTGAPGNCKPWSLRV
Xanthine oxidase, sequence (P80457 2-1332): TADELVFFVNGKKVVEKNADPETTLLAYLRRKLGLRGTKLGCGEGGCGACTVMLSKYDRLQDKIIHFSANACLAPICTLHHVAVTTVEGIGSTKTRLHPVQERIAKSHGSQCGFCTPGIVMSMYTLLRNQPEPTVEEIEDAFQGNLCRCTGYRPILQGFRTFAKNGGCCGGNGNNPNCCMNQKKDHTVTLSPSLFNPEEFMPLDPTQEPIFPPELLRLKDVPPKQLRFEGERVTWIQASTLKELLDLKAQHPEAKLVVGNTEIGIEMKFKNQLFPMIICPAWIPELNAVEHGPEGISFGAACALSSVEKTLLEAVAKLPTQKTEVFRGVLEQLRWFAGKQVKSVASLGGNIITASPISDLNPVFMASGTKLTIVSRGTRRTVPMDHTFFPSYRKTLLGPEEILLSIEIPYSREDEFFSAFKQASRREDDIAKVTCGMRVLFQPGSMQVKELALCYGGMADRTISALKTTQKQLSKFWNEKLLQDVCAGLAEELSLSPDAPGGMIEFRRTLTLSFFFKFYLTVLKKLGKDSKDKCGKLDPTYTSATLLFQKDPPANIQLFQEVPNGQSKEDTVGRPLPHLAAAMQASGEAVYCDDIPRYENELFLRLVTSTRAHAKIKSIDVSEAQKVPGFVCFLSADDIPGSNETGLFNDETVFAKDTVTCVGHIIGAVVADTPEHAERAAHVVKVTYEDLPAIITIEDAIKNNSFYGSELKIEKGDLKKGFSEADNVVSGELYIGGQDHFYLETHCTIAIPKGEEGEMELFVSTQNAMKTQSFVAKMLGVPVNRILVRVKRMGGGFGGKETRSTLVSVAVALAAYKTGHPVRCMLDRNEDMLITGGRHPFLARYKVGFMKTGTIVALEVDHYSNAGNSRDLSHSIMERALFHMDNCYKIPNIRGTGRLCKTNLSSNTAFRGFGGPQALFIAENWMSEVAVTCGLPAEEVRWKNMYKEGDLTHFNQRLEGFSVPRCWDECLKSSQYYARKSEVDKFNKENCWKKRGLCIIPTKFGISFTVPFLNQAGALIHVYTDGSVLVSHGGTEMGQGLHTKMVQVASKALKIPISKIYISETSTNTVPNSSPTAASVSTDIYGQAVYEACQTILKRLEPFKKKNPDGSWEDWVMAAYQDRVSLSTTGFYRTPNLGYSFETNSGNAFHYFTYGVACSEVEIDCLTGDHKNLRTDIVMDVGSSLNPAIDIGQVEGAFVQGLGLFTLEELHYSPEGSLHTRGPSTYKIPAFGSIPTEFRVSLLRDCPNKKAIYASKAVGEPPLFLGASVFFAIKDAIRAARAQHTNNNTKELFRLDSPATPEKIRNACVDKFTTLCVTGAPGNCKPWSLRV

XO Inhibitory Activity (%) [1]: 20.09 ± 2.41 ^a %
Kq (quenching rate constant) [2]: 5.608e+11 M⁻¹ s⁻¹
Ksv (Stern-Volmer quenching constant) [2]: 5608 M⁻¹
fluorescence quenching mechanism of XO [2]: static
type of XO inhibition [3]: mixed inhibitor
reversibility of XO inhibition [3]: reversible
Molecule: FPFP [tetrapeptide identified from round scad hydrolysate fraction F2, chemically synthesized]

XO Inhibitory Activity (%) [1]: 22.61 ± 1.81 ^a %
Kq (quenching rate constant) [2]: 5.42e+10 M⁻¹ s⁻¹
Ksv (Stern-Volmer quenching constant) [2]: 542 M⁻¹
fluorescence quenching mechanism of XO [2]: static
type of XO inhibition [3]: mixed inhibitor
reversibility of XO inhibition [3]: reversible
Molecule: FPSV [tetrapeptide identified from round scad hydrolysate fraction F2, chemically synthesized]

XO Inhibitory Activity (%) [1]: 5.43 ± 0.20 ^c %
Molecule: KGFP [tetrapeptide identified from round scad hydrolysate fraction F2, chemically synthesized]

XO Inhibitory Activity (%) [1]: 16.21 ± 0.78 ^b %
Molecule: WPDGR [pentapeptide identified from round scad hydrolysate fraction F2, chemically synthesized]

XO inhibitory activity (%) at 5 mM peptide (rate of uric acid formation, absorbance at 290 nm) [4]: 16.2%
B1: WPDGR (peptide)
peptide: WPDGR

XO inhibitory activity (%) at 5 mM peptide (rate of uric acid formation, absorbance at 290 nm) [4]: 5.43%
B2: KGFP (peptide)
peptide: KGFP

XO inhibitory activity (%) at 5 mM peptide (rate of uric acid formation, absorbance at 290 nm) [4]: 22.6%
Kq (quenching rate constant) [5]: 5.42e+10 M⁻¹ s⁻¹
Ksv (Stern-Volmer quenching constant) [5]: 542 M⁻¹
B3: FPSV (peptide)
peptide: FPSV

XO inhibitory activity (%) at 5 mM peptide (rate of uric acid formation, absorbance at 290 nm) [4]: 20.1%
Kq (quenching rate constant) [5]: 5.61e+11 M⁻¹ s⁻¹
Ksv (Stern-Volmer quenching constant) [5]: 5610 M⁻¹
B4: FPFP (peptide)
peptide: FPFP
